# Results reported in ChEMBL document CHEMBL3507680, “University of Dundee, Gates Library screen for HepG2 cell viability”.
# Experiment: Human HepG2 cell viability assay in 384 well format
# Assay type: toxicity, cell-based
# Set-up: dose 125 nL, time 70.5 hour; cytotoxicity at 70.5 h: concentration not given beside the values
# Conditions: HepG2 cells, read-out: Inhibition
row,SMILES,cytotoxicity at 70.5 h
1,NC(=O)C(CNC(=O)CCc1ccccc1)Cc1ccc(F)cc1 (stereo unspecified),-2.33%
2,Cn1cc(Cl)cc1C(=O)N1CCN(Cc2ccsc2)CC1,0.559%
3,O=C1CSC(c2ccc(O)cc2)c2sccc2N1 (stereo unspecified),3%
4,CCN(C)C(=O)Cn1c(-c2ccco2)nn(-c2ccccc2OC)c1=O,0.98%
5,Cc1ccc(C(=O)NC2CCN(Cc3nc(CC(C)C)no3)CC2)s1,1.36%
6,Cc1ccc(C)c(OCCNC(=O)C2CCOC2)c1 (stereo unspecified),-1.02%
7,CCc1cnc(CCNC(C)CC(=O)Nc2cccc(C)c2C)s1 (stereo unspecified),-5.98%
8,Cc1nc(CN2CCCC(NCCOc3cccc(C#N)c3)C2)no1 (stereo unspecified),-2.71%
9,Cc1nnc(C(C)NCC2(c3ccc(Cl)cc3)CCCC2)o1 (stereo unspecified),-7.22%
10,COc1ccc(OC)c(Nc2nc3c(C)nn(C)c3c(=O)n2C)c1,7.63%
11,CC(CCSc1ccccc1)N1CCN(C(=O)c2ccccc2O)CC1 (stereo unspecified),36.1%
12,Fc1cccc(N2CCCC3(CN(Cc4ccco4)CCO3)C2)c1 (stereo unspecified),-11.7%
13,CN1CCN(S(C)(=O)=O)Cc2cccnc21,-2.81%
14,CCCC(=O)Nc1cccc([C@H]2C[C@@H](NC(C)=O)CCO2)c1,-12.2%
15,Cc1[nH]nc2ncc(C(=O)N3CCN(CC(C)C)CC3)cc12,11.9%
16,O=C(CCNC(=O)c1ccccc1F)NCCNc1cccnc1,1.94%
17,CCCC(=O)N(C)CC(=O)Nc1ccc(Br)cn1,-2.34%
18,CN1CCN(Cc2cnc3n2CCN(CCc2ccccc2)C3)CC1,19.5%
19,CC(C)(C)Cc1nnc(NCc2cccc(C#N)c2)o1,-1.69%
20,COc1ccc(-c2cn(CCSc3ncn[nH]3)nn2)cn1,-9.67%
21,COCCN(Cc1coc(-c2cccc(Cl)c2)n1)C1CC1,-4.43%
22,O=C1CCN(C(=O)C2(c3ccc(F)cc3)CCOCC2)CCN1,-8.05%
23,Cc1ccc(Br)cc1NC(=O)NCC(O)CO (stereo unspecified),3.24%

row,SMILES,cytotoxicity at 70.5 h
1,Cc1ccc(CNC(=O)c2ccc(F)cc2)o1,-8.9%
2,COc1cccc(CN(Cc2ccco2)Cc2[nH]cnc2C)c1,6.19%
3,CC(C)COC(=O)N1CCCN(C(C)c2nnc(CC(C)C)o2)CC1 (stereo unspecified),-3.09%
4,CSc1ccc(CNC(c2ccccc2)c2nccn2C)cc1 (stereo unspecified),-1.21%
5,COc1ccccc1CN1CC[C@H]2[C@@H](C1)[C@H](c1ccsc1)CN2C(C)=O,18.4%
6,CC(C(=O)N1CCCN(Cc2cnn(C)c2)CC1)n1ccnc1 (stereo unspecified),23.2%
7,COCCN1CCC(CN(CC2CCCO2)C(=O)CCC(F)(F)F)CC1 (stereo unspecified),-2.11%
8,CCn1cc(CN2CCCC2c2nc(C(C)C)no2)cc1C#N (stereo unspecified),21%
9,COc1ccccc1CN1C[C@@H](F)[C@@H](OCc2nc3cnccc3[nH]2)C1,-4.23%
10,CN1CC(NC(=O)CCOc2cccc(Cl)c2)CC1=O (stereo unspecified),17.2%
11,O=C(Nc1nc(-c2ccccc2)ns1)N1CCC(CO)CC1,-12.6%
12,CC1CCCN(C(=O)c2occc2COc2cccc(C#N)c2)C1 (stereo unspecified),4.5%
13,COc1ccc(CNC(Cc2cccs2)c2nc(C)c(C)s2)cc1OC (stereo unspecified),2.99%
14,Cc1c(Br)cccc1C(=O)NC(C)CN1CCCC1=O (stereo unspecified),1.84%
15,O=C(c1ccnnc1)N1C[C@@H]2OCCN(CCN3CCCC3)[C@@H]2C1,4.4%
16,O=C(O)c1cc(-c2ccncc2F)cc(S(=O)(=O)N2CCCCCC2)c1,-23.6%
17,CC(=O)Oc1ccnc(C(F)(F)F)c1C(C)=O,-3.5%
18,Cc1ccc(N2CCC(c3nccn3Cc3cscn3)CC2)nn1,0.241%
19,Cc1ncc(C(=O)NCCNc2ccncc2)s1,-3.98%
20,CCOC(=O)C1(NCC(=O)Nc2cc(C)ccc2OC)CCCC1,21.1%
21,CC(C)Cc1noc(-c2ccc(NCc3noc(C(C)C)n3)nc2)n1,-5.16%
22,COCc1nc(CN2CCC3(CCCO3)CCC2=O)no1 (stereo unspecified),-7.37%
23,CN(C)C(C(=O)N1Cc2ccccc2C1)c1ccccc1F (stereo unspecified),-2.59%
